Experimental data taken from EP4789664A1, “NOVEL ANTI[…] AND USES THEREOF” (priority 2025, dated 2026).

Target: T1, IN-GCN2 interaction (UniProt P04585+Q9P2K8)
T1 construct: active truncated version of the human protein (192-1024); Recombinant full-length HIV-1 IN was produced in-house; purchased SignalChem (GCN2); IN made in-house in E. coli BL21(DE3)pLysS E12-11G; host or cells: BL21(DE3)pLysS for IN
Assay: biochemical
Type: binding, HIV-1 IN; human GCN2
Conditions: read-out: inhibition of the IN-GCN2 interaction at 100 µM
Protocol: The interaction between IN and GCN2 was monitored using the AlphaLISA technology (Revvity). The reaction was performed in a shallow-well 384-well microplate (Revvity, AlphaPlate-384SW, ProxiPlate) with 24 nM GST-GCN2, 700 nM 6xHis-IN, 10 µg/mL of nickel chelate acceptor beads and glutathione donor beads, the test compound or an equivalent amount of DMSO (solvent at 10 % final concentration) in a buffer composed of 50 mM Tris-HCl pH 7.5, 1 mM DTT, 0.05% Tween 20, 0.1% bovine serum albumin (BSA) and 40 mM NaCl (final volume 15µl). First, the reaction was initiated by adding the various components except the donor beads. After 20 minutes at room temperature, the donor beads were added and the plate sealed. Data acquisition was performed 120 minutes later using a Victor Nivo Multimode Plate Reader (Revvity). Means, standard deviations and graphical representation were generated using Prism 8.4.3 software (GraphPad).
420 molecules from the National Cancer Institute Developmental Therapeutics Program (NCI DTP) were screened as modulators of the IN-GCN2 interaction in vitro. […] Experiments were conducted onto two separate AlphaPlates 384-shallow well, with 180 and 240 molecules respectively and 12 DMSO control each.

T1 sequence (Q9P2K8 192-1024, other chains not shown): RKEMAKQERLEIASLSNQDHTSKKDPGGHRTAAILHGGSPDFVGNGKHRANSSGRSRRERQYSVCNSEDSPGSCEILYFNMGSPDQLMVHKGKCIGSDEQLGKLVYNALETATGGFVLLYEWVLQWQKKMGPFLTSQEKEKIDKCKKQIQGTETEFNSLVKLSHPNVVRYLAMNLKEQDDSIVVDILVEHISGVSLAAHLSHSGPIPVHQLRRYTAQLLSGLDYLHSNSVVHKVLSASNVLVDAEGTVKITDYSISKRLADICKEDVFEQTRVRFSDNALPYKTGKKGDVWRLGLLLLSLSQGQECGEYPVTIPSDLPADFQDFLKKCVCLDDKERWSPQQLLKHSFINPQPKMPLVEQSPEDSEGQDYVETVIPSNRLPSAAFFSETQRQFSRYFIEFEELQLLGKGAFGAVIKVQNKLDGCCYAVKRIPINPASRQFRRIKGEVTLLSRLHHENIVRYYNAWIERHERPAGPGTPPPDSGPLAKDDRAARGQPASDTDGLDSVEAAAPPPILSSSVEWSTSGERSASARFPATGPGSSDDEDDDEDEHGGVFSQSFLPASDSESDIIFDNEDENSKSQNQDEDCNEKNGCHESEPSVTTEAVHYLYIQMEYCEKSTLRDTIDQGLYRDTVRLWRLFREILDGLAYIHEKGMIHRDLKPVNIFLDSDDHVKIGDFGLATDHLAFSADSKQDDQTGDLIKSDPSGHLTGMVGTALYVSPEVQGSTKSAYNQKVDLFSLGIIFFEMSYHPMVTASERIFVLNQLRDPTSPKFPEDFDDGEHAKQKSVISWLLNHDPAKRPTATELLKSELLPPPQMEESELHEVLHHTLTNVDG

SMILES: COc1cc2c(cc1OC)c1c(OC)c(OC)cc3c1c1c2sc(=S)n1CC3 [III-3a, 7,8,10,11-Tetramethoxy-4,5-dihydrodibenzo[de,g]-[1,3]thiazolo[5,4,3-ij]quinoline-2-thione]
- inhibition at 100 µM: ~80%

SMILES: CCOC(=O)N1CCc2cc(OC)c(OC)c3c2c1cc1cc(OC)c(OC)cc13 [III-3d, Dibenzo[de,g]quinoline-6-carboxylic acid, 4,5-dihydro-1,2,9,10-tetramethoxy-, ethyl ester]
- inhibition at 100 µM: ~55%
